Measured values taken from patent US11000033B2, “Ketone or oxime compound, and herbicide” (NISSAN CHEMICAL CORPORATION, priority 2014, dated 2021).

Key:
Type in all cases: in vivo
Scirpus juncoides = experiment: Test Example 1: herbicidal activity, application before weed generation in submerged conditions (symbol B)
In short: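 Flooded alluvial soil (4 cm water) was mixed-sown with the three weed species, and 2.5-leaf rice seedlings were transplanted. On sowing day, a water-diluted emulsion at a predetermined rate was applied to the water surface. After 3 weeks in a 25–30 °C greenhouse, effect was scored 0–5.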

rapeseed = experiment: Test Example 5: effect on crop by foliage application, plastic box (symbol g); conditions: 3 weeks after application
In short: (§1)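 Seeds were sown in spots in sterilized diluvial soil held in a plastic box 21 cm × 13 cm × 7 cm deep, covered with about 1.5 cm of soil, and grown in a greenhouse at 25° C. to 30° C.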

soybean [1] = experiment: Test Example 5: effect on crop by foliage application, plastic box (symbol d); conditions: 3 weeks after application
In short: as §1

soybean [2] = experiment: Test Example 4: effect on crop by soil treatment (symbol d); conditions: for Effect on crop grade, d: soybean: application herbicide amount 320 g/ha
In short: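 The test used sterilized diluvial soil. Seed was set down in spots and overlaid with about 1.5 cm of soil before growth in a greenhouse kept at 25° C. to 30° C.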

Veronica persica = experiment: Test Example 4: herbicidal effect by soil treatment (symbol R); conditions: for Herbicidal effect grade, R: Veronica persica: application herbicide amount 320 g/ha
In short: (§2)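 Seeds were sown in sterilized diluvial soil, covered with about 1.5 cm of soil, and the soil surface was sprayed with a water-diluted emulsion of the compound at a predetermined rate. Plants grew in a greenhouse at 25° C. to 30° C.; effects were scored visually 3 weeks after application.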

[3] = test system: directly sowed rice plant; experiment: Test Example 3: effect on crop by foliage application, Wagner pot (symbol b); conditions: for b (directly sowed rice plant) effect on crop grade: Table 24
In short: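 Alluvial soil in a 1/10000-are Wagner pot was flooded to a water depth of 0.1–0.5 cm. Echinochloa crus-galli var. crus-galli, Leptochloa chinensis, Cyperus difformis and rice were sown into it and grown in a greenhouse at 25–30 °C.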

Monochoria vaginalis = experiment: Test Example 2: herbicidal activity, application during weed generation in submerged conditions (symbol C); conditions: Table 23, grade 0-5 by criteria of Test Example 1
In short: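 Alluvial soil in pots was flooded to a 4 cm water depth and sown with a mix of the three weed species, then grown in a greenhouse at 25° C. to 30° C. At the one- to two-leaf stage, an emulsifiable formulation diluted in water to a set dose was applied to the water surface. Effects were scored visually 3 weeks later.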

Setaria viridis [4] = experiment: Test Example 5: herbicidal effect by foliage application, plastic box (symbol G); conditions: 3 weeks after application
In short: (§3)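 Seeds were sown in sterilized diluvial soil, covered with about 1.5 cm of soil and grown 14 days in a greenhouse at 25° C. to 30° C. An emulsifiable formulation diluted in water to a set rate was sprayed over foliage, and injury was scored 3 weeks later.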

Galium spurium = experiment: Test Example 5: herbicidal effect by foliage application, plastic box (symbol Q); conditions: 3 weeks after application
In short: as §3

Digitaria ciliaris = experiment: Test Example 4: herbicidal effect by soil treatment (symbol F); conditions: for Herbicidal effect grade, F: Digitaria ciliaris: application herbicide amount 320 g/ha
In short: as §2

Stellaria media = experiment: Test Example 4: herbicidal effect by soil treatment (symbol P); conditions: for Herbicidal effect grade, P: Stellaria media: application herbicide amount 320 g/ha
In short: as §2

Setaria viridis [5] = experiment: Test Example 4: herbicidal effect by soil treatment (symbol G); conditions: for Herbicidal effect grade, G: Setaria viridis: application herbicide amount 320 g/ha
In short: as §2

[6] = test system: Echinochloa crus-galli var. crus-galli; experiment: Test Example 4: herbicidal effect by soil treatment (symbol H); conditions: for Herbicidal effect grade, H: Echinochloa crus-galli var. crus-galli: application herbicide amount 320 g/ha
In short: as §2

[7] = test system: Echinochloa crus-galli var. crus-galli; experiment: Test Example 5: herbicidal effect by foliage application, plastic box (symbol H); conditions: 3 weeks after application
In short: as §3

beet = experiment: Test Example 5: effect on crop by foliage application, plastic box (symbol f); conditions: 3 weeks after application
In short: as §1

[8] = application herbicide amount 102 g/ha
[9] = application herbicide amount 320 g/ha

SMILES	Herbicidal effect grade, C: Monochoria vaginalis (Monochoria vaginalis; [9])	B (Scirpus juncoides) herbicidal effect grade (Scirpus juncoides; [9])	g: rapeseed, effect on crop grade (rapeseed; 320 g/ha)	d: soybean, effect on crop grade (soybean [1]; 320 g/ha)	Effect on crop grade, d: soybean (soybean [2])	Herbicidal effect grade, R: Veronica persica (Veronica persica)	b (directly sowed rice plant) effect on crop grade [3, 9]	G: Setaria viridis, herbicidal effect grade (Setaria viridis [4]; 320 g/ha)	Q: Galium spurium, herbicidal effect grade (Galium spurium; 320 g/ha)	Herbicidal effect grade, F: Digitaria ciliaris (Digitaria ciliaris)	Herbicidal effect grade, P: Stellaria media (Stellaria media)	Herbicidal effect grade, G: Setaria viridis (Setaria viridis [5])	Herbicidal effect grade, H: Echinochloa crus-galli var. crus-galli [6]	H: Echinochloa crus-galli var. crus-galli, herbicidal effect grade ([7]; 320 g/ha)	f: beet, effect on crop grade (beet; 320 g/ha)	also measured
CC(=O)CC1CC(O)=C(c2c(C)cc(C)cc2C)C1=O (stereo not drawn) [2-001, 3-hydroxy-2-mesityl-5-(2-oxopropyl)cyclopent-2-enone]	–	–	–	–	–	–	–	–	–	–	–	–	–	–	–	Herbicidal effect grade, B: Scirpus juncoides (Scirpus juncoides; [8]): 0 (Herbicidal ratio of 5% or lower (almost no effect)); g: rapeseed, effect on crop grade (rapeseed; 102 g/ha): 4 (Herbicidal ratio of 70% or higher and lower than 90%); d: soybean, effect on crop grade (soybean [1]; 102 g/ha): 0 (Herbicidal ratio of 5% or lower (almost no effect)); d: soybean, effect grade on crop (soybean [2]; 102 g/ha): 0 (Herbicidal ratio of 5% or lower (almost no effect)); R: Veronica persica, herbicidal effect grade (Veronica persica; 102 g/ha): 0 (Herbicidal ratio of 5% or lower (almost no effect)); effect on crop b (directly sowed rice plant), grade 0-5 [3, 8]: 5 (Herbicidal ratio of 90% or more (almost completely withered)); Herbicidal effect grade, C: Monochoria vaginalis (Monochoria vaginalis; [8]): 0 (Herbicidal ratio of 5% or lower (almost no effect)); G: Setaria viridis, herbicidal effect grade (Setaria viridis [4]; 102 g/ha): 4 (Herbicidal ratio of 70% or higher and lower than 90%); Q: Galium spurium, herbicidal effect grade (Galium spurium; 102 g/ha): 3 (Herbicidal ratio of 40% or higher and lower than 70%); F: Digitaria ciliaris, herbicidal effect grade (Digitaria ciliaris; 102 g/ha): 5 (Herbicidal ratio of 90% or more (almost completely withered)); P: Stellaria media, herbicidal effect grade (Stellaria media; 102 g/ha): 0 (Herbicidal ratio of 5% or lower (almost no effect)); G: Setaria viridis, herbicidal effect grade (Setaria viridis [5]; 102 g/ha): 4 (Herbicidal ratio of 70% or higher and lower than 90%); H: Echinochloa crus-galli var. crus-galli, herbicidal effect grade ([6]; 102 g/ha): 5 (Herbicidal ratio of 90% or more (almost completely withered)); H: Echinochloa crus-galli var. crus-galli, herbicidal effect grade ([7]; 102 g/ha): 5 (Herbicidal ratio of 90% or more (almost completely withered)); f: beet, effect on crop grade (beet; 102 g/ha): 1 (Herbicidal ratio of 5% or higher and lower than 20%)
CC(CC1CC(O)=C(c2c(C)cc(C)cc2C)C1=O)=NOCC(C)Br (stereo not drawn) [1-135]	0 (Herbicidal ratio of 5% or lower (almost no effect))	–	–	–	–	–	–	–	–	–	–	–	–	–	–	Herbicidal effect grade, B: Scirpus juncoides (Scirpus juncoides; [9]): 5 (Herbicidal ratio of 90% or more (almost completely withered)); g: rapeseed, effect on crop (criteria 0-5) (rapeseed; 320 g/ha): 4 (Herbicidal ratio of 70% or higher and lower than 90%); d: soybean, effect on crop (criteria 0-5) (soybean [1]; 320 g/ha): 1 (Herbicidal ratio of 5% or higher and lower than 20%); d: soybean, effect grade on crop (soybean [2]; 320 g/ha): 0 (Herbicidal ratio of 5% or lower (almost no effect)); R: Veronica persica, herbicidal effect grade (Veronica persica; 320 g/ha): 2 (Herbicidal ratio of 20% or higher and lower than 40%); effect on crop b (directly sowed rice plant), grade 0-5 [3, 9]: 5 (Herbicidal ratio of 90% or more (almost completely withered)); G: Setaria viridis, herbicidal effect (criteria 0-5) (Setaria viridis [4]; 320 g/ha): 5 (Herbicidal ratio of 90% or more (almost completely withered)); Q: Galium spurium, herbicidal effect (criteria 0-5) (Galium spurium; 320 g/ha): 0 (Herbicidal ratio of 5% or lower (almost no effect)); F: Digitaria ciliaris, herbicidal effect grade (Digitaria ciliaris; 320 g/ha): 5 (Herbicidal ratio of 90% or more (almost completely withered)); P: Stellaria media, herbicidal effect grade (Stellaria media; 320 g/ha): 0 (Herbicidal ratio of 5% or lower (almost no effect)); G: Setaria viridis, herbicidal effect grade (Setaria viridis [5]; 320 g/ha): 5 (Herbicidal ratio of 90% or more (almost completely withered)); H: Echinochloa crus-galli var. crus-galli, herbicidal effect grade ([6]; 320 g/ha): 5 (Herbicidal ratio of 90% or more (almost completely withered)); H: Echinochloa crus-galli var. crus-galli, herbicidal effect (criteria 0-5) ([7]; 320 g/ha): 5 (Herbicidal ratio of 90% or more (almost completely withered)); f: beet, effect on crop (criteria 0-5) (beet; 320 g/ha): 0 (Herbicidal ratio of 5% or lower (almost no effect))
CC(CC1CC(OC(=O)COc2ccccc2)=C(c2c(C)cc(-c3ccc(Cl)cc3)cc2C)C1=O)=NOCC(F)(F)F (mixture of isomers) [9-027]	0 (Herbicidal ratio of 5% or lower (almost no effect))	2 (Herbicidal ratio of 20% or higher and lower than 40%)	4 (Herbicidal ratio of 70% or higher and lower than 90%)	0 (Herbicidal ratio of 5% or lower (almost no effect))	0 (Herbicidal ratio of 5% or lower (almost no effect))	3 (Herbicidal ratio of 40% or higher and lower than 70%)	3 (Herbicidal ratio of 40% or higher and lower than 70%)	5 (Herbicidal ratio of 90% or more (almost completely withered))	3 (Herbicidal ratio of 40% or higher and lower than 70%)	5 (Herbicidal ratio of 90% or more (almost completely withered))	3 (Herbicidal ratio of 40% or higher and lower than 70%)	5 (Herbicidal ratio of 90% or more (almost completely withered))	5 (Herbicidal ratio of 90% or more (almost completely withered))	5 (Herbicidal ratio of 90% or more (almost completely withered))	0 (Herbicidal ratio of 5% or lower (almost no effect))	–
CC(CC1CC(O)=C(c2c(C)cc(-n3cc(Cl)cn3)cc2C)C1=O)=NOCC(F)(F)F (stereo not drawn) [9-010]	1 (Herbicidal ratio of 5% or higher and lower than 20%)	5 (Herbicidal ratio of 90% or more (almost completely withered))	3 (Herbicidal ratio of 40% or higher and lower than 70%)	2 (Herbicidal ratio of 20% or higher and lower than 40%)	0 (Herbicidal ratio of 5% or lower (almost no effect))	0 (Herbicidal ratio of 5% or lower (almost no effect))	5 (Herbicidal ratio of 90% or more (almost completely withered))	5 (Herbicidal ratio of 90% or more (almost completely withered))	3 (Herbicidal ratio of 40% or higher and lower than 70%)	5 (Herbicidal ratio of 90% or more (almost completely withered))	0 (Herbicidal ratio of 5% or lower (almost no effect))	5 (Herbicidal ratio of 90% or more (almost completely withered))	5 (Herbicidal ratio of 90% or more (almost completely withered))	5 (Herbicidal ratio of 90% or more (almost completely withered))	0 (Herbicidal ratio of 5% or lower (almost no effect))	–
CC(CC1CC(OC(=O)COc2ccccc2)=C(c2c(C)cc(-n3cc(Cl)cn3)cc2C)C1=O)=NOCC(F)(F)F (stereo not drawn) [9-012]	2 (Herbicidal ratio of 20% or higher and lower than 40%)	4 (Herbicidal ratio of 70% or higher and lower than 90%)	3 (Herbicidal ratio of 40% or higher and lower than 70%)	1 (Herbicidal ratio of 5% or higher and lower than 20%)	0 (Herbicidal ratio of 5% or lower (almost no effect))	2 (Herbicidal ratio of 20% or higher and lower than 40%)	5 (Herbicidal ratio of 90% or more (almost completely withered))	5 (Herbicidal ratio of 90% or more (almost completely withered))	4 (Herbicidal ratio of 70% or higher and lower than 90%)	5 (Herbicidal ratio of 90% or more (almost completely withered))	0 (Herbicidal ratio of 5% or lower (almost no effect))	5 (Herbicidal ratio of 90% or more (almost completely withered))	5 (Herbicidal ratio of 90% or more (almost completely withered))	5 (Herbicidal ratio of 90% or more (almost completely withered))	0 (Herbicidal ratio of 5% or lower (almost no effect))	–
